# Measurements from PMC7937321 (Genes and Environment, 2021).
# Like-named read-outs stand apart in the source and are kept apart here.
# Legend:
# [1] = test system: human lymphoblastoid TK6 cells, thymidine kinase gene
# [2] = test system: L5178Y mouse lymphoma cells; conditions: cited from earlier work; for MLA (TK gene locus), With S9 / MLA (TK gene locus), Without S9: [46]-[53], Table 3
# [3] = test system: rodent; conditions: cited from earlier work; for Carcinogenicity Studies: rodent, ref [20]-[41], Table 2
# [4] = test system: TK6 cells; conditions: human
# [5] = test system: human lymphoblastoid TK6 cells, thymidine kinase gene; assay: TK gene mutation assay (TK6 assay, OECD TG490)
# [6] = test system: TK6 cells; assay: Cytotoxicity in the TK6 assay (CE, RS, RSG, RTG); conditions: for CE0 / RS0 / Adjusted CE0 / Adjusted CE0(%) / CE0 (%) / RS0 (%): Day 0
# [7] = test system: TA1538, TA100, TA98, TA97, TA1535; conditions: cited from earlier work; for Bacterial reverse mutation assay, With S9 / Bacterial reverse mutation assay, Without S9: ref [18]-[40], Table 2
# [8] = Long-term treatment without metabolic activation
# [9] = Short treatment, -S9 mix, 24.10 μg/mL
# [10] = Short treatment, -S9 mix, 48.10 μg/mL
# [11] = Short treatment, -S9 mix, 96.30 μg/mL
# [12] = Short-term treatment with metabolic activation
# [13] = Short-term treatment without metabolic activation
# [14] = dose 6.02 μg/mL, 24h treatment, -S9 mix
# [15] = dose 24.10 μg/mL, 24h treatment, -S9 mix
# [16] = dose 24.1 μg/mL, short treatment, +S9 mix
# [17] = dose 48.1 μg/mL, 24h treatment, -S9 mix
# [18] = dose 48.1 μg/mL, short treatment, +S9 mix
# [19] = dose 96 μg/mL, short treatment, +S9 mix
# [20] = dose 96.3 μg/mL, 24h treatment, -S9 mix
# [21] = Short treatment, +S9 mix, 24.1 μg/mL
# [22] = Short treatment, +S9 mix, 48.1 μg/mL
# [23] = Short treatment, +S9 mix, 96 μg/mL
# [24] = Short treatment, +S9 mix, 770 μg/mL
smiles,measurement,setting,value
"Cc1cc(N)ccc1N [2,5-Diaminotoluene]",TK6 assay overall judgment,[1],negative
same,"TK mutation assay, Long term",[1],Neg
same,"TK mutation assay, With S9",[1],Neg
same,"TK mutation assay, Without S9",[1],Neg
same,MLA result,"[2]; NTP database, ref [54]",positive
same,MLA result,"[2]; reported by SCCS, ref [46]",negative
same,"MLA (TK gene locus), With S9",[2]; ref [27],Inconclusive^c
same,"MLA (TK gene locus), Without S9",[2]; ref [27],Inconclusive^c
same,Carcinogenicity Studies,[3],Neg
same,CE3 (cell viability on Day 3),[4],92.1%
same,cytotoxicity,[4],About 80%
Nc1ccc([N+](=O)[O-])cc1N [4-Nitro-o-phenylenediamine],"MLA (TK gene locus), With S9",[2]; ref [27],Pos
same,"MLA (TK gene locus), Without S9",[2]; ref [27],Pos
same,"TK6 assay result (mutant frequency increase, judgment)",[5]; 4h treatment (-S9),increased significantly
same,"TK mutation assay, Long term","[5]; 24 h, without S9",Pos
same,"TK6 assay result (mutant frequency increase, judgment)",[5]; 24h treatment (-S9),increased significantly
same,"Dunnett type test, test statistic",[5]; [8],3.866
same,"Trend test, test statistic",[5]; [8],2.800
same,%SG,[5]; [9],54.1%
same,MF,[5]; [9],14.5
same,%SG,[5]; [10],55.8%
same,MF,[5]; [10],17.4
same,Mut. freq. N-MF,[5]; [10],7.7 ×10-6
same,Mut. freq. S-MF,[5]; [10],9.7 ×10-6
same,Mut. freq. T-MF,[5]; [10],17.4 ×10-6
same,%SG,[5]; [11],62.6%
same,MF,[5]; [11],16.9
same,Mut. freq. N-MF,[5]; [11],6.3 ×10-6
same,Mut. freq. S-MF,[5]; [11],10.6 ×10-6
same,Mut. freq. T-MF,[5]; [11],16.9 ×10-6
same,"Dunnett type test, test statistic",[5]; [12],3.458
same,"Trend test, test statistic",[5]; [12],1.593
same,"Dunnett type test, test statistic",[5]; [13],2.435
same,"Trend test, test statistic",[5]; [13],2.615
same,TK6 assay overall judgment,[5]; all treatments,positive
same,%SG,[5]; [14],39.7%
same,Mut. freq. (×10-6) N-MF,[5]; [14],11.7 ×10-6
same,Mut. freq. (×10-6) S-MF,[5]; [14],7.7 ×10-6
same,Mut. freq. (×10-6) T-MF,[5]; [14],19.4 ×10-6
same,%SG,[5]; [15],59.9%
same,%SG,[5]; [16],62.7%
same,%SG,[5]; [17],78.5%
same,Mut. freq. (×10-6) N-MF,[5]; [17],3.0 ×10-6
same,Mut. freq. (×10-6) S-MF,[5]; [17],11.1 ×10-6
same,Mut. freq. (×10-6) T-MF,[5]; [17],14.2 ×10-6
same,%SG,[5]; [18],65.0%
same,Mut. freq. (×10-6) N-MF,[5]; [18],7.5 ×10-6
same,Mut. freq. (×10-6) S-MF,[5]; [18],14.0 ×10-6
same,Mut. freq. (×10-6) T-MF,[5]; [18],21.6 ×10-6
same,%SG,[5]; [19],70.4%
same,Mut. freq. (×10-6) N-MF,[5]; [19],5.2 ×10-6
same,Mut. freq. (×10-6) S-MF,[5]; [19],12.4 ×10-6
same,Mut. freq. (×10-6) T-MF,[5]; [19],17.6 ×10-6
same,%SG,[5]; [20],76.1%
same,Mut. freq. (×10-6) N-MF,[5]; [20],5.6 ×10-6
same,Mut. freq. (×10-6) S-MF,[5]; [20],17.9 ×10-6
same,Mut. freq. (×10-6) T-MF,[5]; [20],23.5 ×10-6
same,"TK mutation assay, With S9","[5]; short-term 4 h, with rat liver S9",Neg
same,"TK mutation assay, Without S9","[5]; short-term 4 h, without S9",Pos
same,Carcinogenicity Studies,[3],Neg
same,CE0,[6]; [21],81.6%
same,RS0,[6]; [21],97.0%
same,CE3,"[6]; Short treatment, +S9 mix, 24.1 μg/mL, Day 3",92.1%
same,Daily cell growth Day 1×2×3,[6]; [22],13.43
same,RSG,[6]; [22],0.703
same,Adjusted CE0,[6]; [22],81.2%
same,CE0,[6]; [22],84.1%
same,RS0,[6]; [22],101.5%
same,CE3,"[6]; Short treatment, +S9 mix, 48.1 μg/mL, Day 3",84.1%
same,Daily cell growth Day 1×2×3,[6]; [23],13.64
same,RSG,[6]; [23],0.714
same,Adjusted CE0,[6]; [23],62.7%
same,CE0,[6]; [23],66.7%
same,RS0,[6]; [23],78.3%
same,CE3,"[6]; Short treatment, +S9 mix, 96 μg/mL, Day 3",72.7%
same,Daily cell growth Day 1×2×3,[6]; [24],1.65
same,RSG,[6]; [24],0.086
same,Adjusted CE0,[6]; [24],29.1%
same,CE0,[6]; [24],42.0%
same,RS0,[6]; [24],36.3%
same,CE3,[6]; [9],1.160
same,RS,[6]; [9],79.4
same,CE0,[6]; [9],74.8%
same,RS0,[6]; [9],79.4%
same,CE3,"[6]; Short treatment, -S9 mix, 24.10 μg/mL, Day 3",116.0%
same,CE3,[6]; [10],0.866
same,Daily cell growth Day 1×2×3,[6]; [10],13.83
same,RS,[6]; [10],65.5
same,RSG,[6]; [10],0.667
same,Adjusted CE0,[6]; [10],56.8%
same,CE0,[6]; [10],61.3%
same,RS0,[6]; [10],65.5%
same,CE3,"[6]; Short treatment, -S9 mix, 48.10 μg/mL, Day 3",86.6%
same,CE3,[6]; [11],0.950
same,Daily cell growth Day 1×2×3,[6]; [11],13.07
same,RS,[6]; [11],64.6
same,RSG,[6]; [11],0.630
same,Adjusted CE0,[6]; [11],56.1%
same,CE0,[6]; [11],63.1%
same,RS0,[6]; [11],64.6%
same,CE3,"[6]; Short treatment, -S9 mix, 96.30 μg/mL, Day 3",95.0%
same,CE3,[6]; [14],0.866
same,Daily cell growth Day 1×2×3,[6]; [14],17.46
same,RSG,[6]; [14],0.993
same,Adjusted CE0(%),[6]; [14],178.3%
same,CE0 (%),[6]; [14],81.6%
same,RS0 (%),[6]; [14],79.6%
same,CE3 (%),"[6]; dose 6.02 μg/mL, 24h treatment, -S9 mix, Day 3",86.6%
same,CE3,[6]; [15],1.012
same,CE0 (%),[6]; [15],95.0%
same,RS0 (%),[6]; [15],73.2%
same,CE3 (%),"[6]; dose 24.10 μg/mL, 24h treatment, -S9 mix, Day 3",101.2%
same,CE3,[6]; [16],0.921
same,RS,[6]; [16],97.0
same,CE3,[6]; [17],0.950
same,Daily cell growth Day 1×2×3,[6]; [17],11.59
same,RSG,[6]; [17],0.659
same,Adjusted CE0(%),[6]; [17],99.3%
same,CE0 (%),[6]; [17],74.8%
same,RS0 (%),[6]; [17],44.3%
same,CE3 (%),"[6]; dose 48.1 μg/mL, 24h treatment, -S9 mix, Day 3",95.0%
same,CE3,[6]; [18],0.841
same,RS,[6]; [18],101.5
same,CE3,[6]; [19],0.727
same,RS,[6]; [19],78.3
same,CE3,[6]; [20],0.866
same,Daily cell growth Day 1×2×3,[6]; [20],9.04
same,RSG,[6]; [20],0.514
same,Adjusted CE0(%),[6]; [20],55.5%
same,CE0 (%),[6]; [20],59.6%
same,RS0 (%),[6]; [20],24.8%
same,CE3 (%),"[6]; dose 96.3 μg/mL, 24h treatment, -S9 mix, Day 3",86.6%
same,RS,"[6]; dose 770 μg/mL, short treatment, +S9 mix",36.3
same,The Highest Specific Activity and the Strain,"[7]; TA100 without S9, ref Table 2","41,400 revertants/mg in TA100 without S9"
same,specific activity values obtained from Ames test,[7]; ref Table 2,"exceeding 10,000 revertants per milligram"
same,"Bacterial reverse mutation assay, With S9",[7],Pos
same,"Bacterial reverse mutation assay, Without S9",[7],Pos
O=[N+]([O-])c1cc(N(CCO)CCO)ccc1NCCO [HC Blue No.2],"TK mutation assay, Long term",[1],Pos
same,"TK mutation assay, With S9",[1],Neg
same,"TK mutation assay, Without S9",[1],Neg
same,"Trend test, test statistic",[1],2.719
same,MLA (4 h),"[2]; presence of S9, ref [27], [29], [68]",positive
same,MLA (−S9),"[2]; substance with high purity, −S9, ref [27]",positive
same,"MLA (TK gene locus), With S9",[2]; ref [27],Pos
same,"MLA (TK gene locus), Without S9",[2]; ref [27],Pos
same,carcinogenicity classification,[3]; ref [84],non-carcinogenic
same,Carcinogenicity Studies,[3],Neg
same,The Highest Specific Activity and the Strain,"[7]; TA98 with S9, ref Table 2",153.6 revertants/mg in TA98 with S9
same,"Bacterial reverse mutation assay, With S9",[7],Pos
same,"Bacterial reverse mutation assay, Without S9",[7],Pos
